Test results: patent US5098920A, “1H-substituted-1,2,4-triazole compounds and methods of use thereof for treatment of cardiovascular disorders” (G. D. Searle & Co., priority 1990, dated 1992)
Where two headings read alike, the source gives them in different places.

Key:
[1] = molecular target: smooth muscle angiotensin II receptor; experiment: Assay A: Angiotensin II Binding Activity (displacement of 125I-AII, rat uterine membrane preparation); settings: 50% displacement of specifically bound 125I-AII; rat uterine membranes; 25° C., 60 min
Method: Assay A: Angiotensin II Binding Activity
Compounds of the invention were tested for ability to bind to the smooth muscle angiotensin II receptor using a rat uterine membrane preparation. […] Other chemicals were obtained from Sigma Chemical Co. This assay was carried out according to the method of Douglas et al [Endocrinology, 106, 120-124 (1980)]. Rat uterine membranes were prepared from fresh tissue. All procedures were carried out at 4° C. Uteri were stripped of fat and homogenized in phosphate-buffered saline at pH 7.4 containing 5 mM EDTA. The homogenate was centrifuged at 1500×g for 20 min., and the supernatant was recentrifuged at 100,000×g for 60 min. The pellet was resuspended in buffer consisting of 2 mM EDTA and 50 mM Tris-HCl (pH 7.5) to a final protein concentration of 4 mg/ml. […] The reaction was initiated by the addition of membrane protein and the mixture was incubated at 25° C. for 60 min. The incubation was terminated with ice-cold 50 mM Tris-HCl (pH 7.5) and the mixture was filtered to separate membrane-bound labelled peptide from the free ligand. The incubation tube and filter were washed with ice-cold buffer. Filters were assayed for radioactivity in a Micromedic gamma counter. Nonspecific binding was defined as binding in the presence of 10 μM of unlabelled AII. Specific binding was calculated as total binding minus nonspecific binding. […] Binding data were aralyzed by a nonlinear least-squares curve fitting program.

rabbit aortic rings = experiment: Assay B: In Vitro Vascular Smooth Muscle-Response for AII (antagonist activity in rabbit aortic rings); assay type: cell-based, rabbit (male New Zealand white); settings: Oryctolagus cuniculus, rabbit aorta rings, antagonist at 10^-5 M, read-out: PA2 (converted)
Method: Assay B: In Vitro Vascular Smooth Muscle-Response for AII The compounds of the invention were tested for antagonist activity in rabbit aortic rings. Male New Zealand white rabbits (2-2.5 kg) were sacrificed using an overdose of pentobarbital and exsanguinated via the carotid arteries. The thoracic aorta was removed, cleaned of adherent fat and connective tissue and then cut into 3-mm ring segments. The endothelium was removed from the rings by gently sliding a rolled-up piece of filter paper into the vessel lumen. The rings were then mounted in a water-jacketed tissue bath, maintained at 37° C., between moveable and fixed ends of a stainless steel wire with the moveable end attached to an FTO3 Grass transducer coupled to a Model 7D Grass Polygraph for recording isometric force responses. […] The preparations were equilibrated for one hour before approximately one gram of passive tension was placed on the rings. Angiotensin II concentration-response curves were then recorded (3×10^-10 to 1×10^-5 M). Each concentration of AII was allowed to elicit its maximal contraction, and then AII was washed out repeatedly for 30 minutes before rechallenging with a higher concentration of AII. Aorta rings were exposed to the test antagonist at 10^-5 M for 5 minutes before challenging with AII. Adjacent segments of the same aorta ring were used for all concentration-response curves in the presence or absence of the test antagonist. The effectiveness of the test compound was expressed in terms of pA2 values and were calculated according to H. O. Schild [Br. J. Pharmacol. Chemother., 2, 189-206 (1947)]. […] Each test antagonist was evaluated in aorta rings from two rabbits.

AII pressor response = experiment: Assay C: In Vivo Intraduodenal Pressor Assay Response for AII Antagonists; design: species or system rat (male Sprague-Dawley); settings: rats; for Inhibition: percent inhibition of AII (30 ng/kg i.v.) pressor response; for Duration: time from peak percent inhibition to 50% of peak
Method: Assay C: In Vivo Intraduodenal Pressor Assay Response for AII Antagonists
Male Sprague-Dawley rats weighing 225-300 grams were anesthetized with Inactin (100 mg/kg, i.p.) and catheters were implanted into the trachea, femoral artery, femoral vein and duodenum. Arterial pressure was recorded from the femoral artery catheter on a Gould chart recorder (Gould, Cleveland, Ohio). The fe:moral vein catheter was used for injections of angiotensin II, mecamylamine and atropine. The tracheal cathete'r allows for airway patency, and the duodenal catheter was used for intraduodenal (i.d.) administration of test compounds. After surgery, the rats were allowed to equilibrate for 30 minutes. Mecamylamine (3 mg/kg, 0.3 ml/kg) and atropine (400 ug/kg, 0.3 ml/kg) were then given i.v. to produce ganglion blockade. These compounds were administered every 90 minutes throughout the test procedure. Angiotensin II was given in bolus does i.v. (30 ng/kg in saline with 0.5% bovine serum albumin, 0.1 ml/kg) every 10 minutes three times or until the increase in arterial pressure produced was within 3 mmHg for two consecutive AII injections. The last two AII injections were averaged and were taken as the control AII pressor response. Ten minutes after the final control AII injection, the test compound (dissolved in sodium bicarbonate) was administered i.d. at a dose of 30 or 100 mg/kg in a volume of 0.2 ml. Angiotensin II injections were then given 5, 10, 20, 30, 45, 60, 75, 90, and 120 minutes after administration of the test compound and response of arterial pressure was monitored. The response to AII was calculated as percent of the control response and then the percent inhibition is calculated as 100 minus the percent control response. Duration of action of a test compound was defined as the time from peak percent inhibition to 50% of peak. One compound at one dose was tested in each rat. Each test compound was tested in two rats and the values for the two rats were averaged.

angiotensin II receptor = settings: cited from earlier work; for angiotensin II antagonist activity: binding experiments, functional assays and in vivo tests, literature
[2] = only printed value, or first of two printed values

Row | SMILES | IC50 [1] [nM] | Kb (rabbit aortic rings; [2]) [nM] | Kb (rabbit aortic rings; second of two values) [nM] | other results
1 | CCCCCc1nc(CCCCC)n(Cc2ccc(-c3ccccc3-c3nnn[nH]3)cc2)n1 [Example 13, 5-[4'-[(3,5-dipentyl-1H-1,2,4-triazol-1-yl)methyl][1,1'-biphenyl]-2-yl]-1H-tetrazole] |  | 2 | 1.41 | 
2 | CCCCc1nc(CCCC)n(Cc2ccc(-c3ccccc3C(=O)NNS(=O)(=O)C(F)(F)F)cc2)n1 [Example 5, 4'-[(3,5-dibutyl-1H-1,2,4-triazol-1-yl)methyl][1,1'-biphenyl]-2-carboxylicacid, 2-[(trifluoromethyl)sulfonyl]hydrazide] | 200 | 63.1 |  | Inhibition (AII pressor response; 100 mg/kg i.d.): 38%; Duration (AII pressor response; 100 mg/kg i.d.): 20 to 30 min
3 | CCCCc1nc(Cl)c(CC(=O)O)n1Cc1ccccc1[N+](=O)[O-] [2-butyl-4-chloro-1-(2-nitrobenzyl)imidazole-5-acetic acid] |  |  |  | angiotensin II antagonist activity (angiotensin II receptor): specific competitive angiotensin II antagonist activity
4 | CCCCc1nc(Cl)nn1Cc1ccc(-c2ccccc2C(=O)O)cc1 [Example 6, 4'-[(5-butyl-3-chloro-1H-1,2,4-triazol-1-yl)methyl][1,1'-biphenyl]-2-carboxylic acid] |  | 204 |  | Inhibition (AII pressor response; 100 mg/kg i.d.): 90%; Duration (AII pressor response; 100 mg/kg i.d.): 120 min
5 | CCCCc1nc(Cl)c(CC(=O)O)n1Cc1ccccc1Cl [2-n-butyl-4-chloro-1-(2-chlorobenzyl)imidazole-5-acetic acid] |  |  |  | angiotensin II antagonist activity (angiotensin II receptor): specific competitive angiotensin II antagonist activity
6 | CNCC(=O)N[C@@H](CCCN=C(N)N)C(=O)N[C@H](C(=O)N[C@@H](Cc1ccc(O)cc1)C(=O)N[C@H](C(=O)N[C@@H](Cc1cnc[nH]1)C(=O)N1CCC[C@H]1C(=O)N[C@@H](C)C(=O)O)C(C)C)C(C)C [Saralasin] |  |  |  | residual agonist activity (angiotensin II receptor; background statement): significant residual agonist activity
7 | CCCCc1nc(CCCC)n(Cc2ccc(-c3ccccc3C(=O)O)cc2)n1 [Example 2, 4'-[(3,5-dibutyl-1H-1,2.4-triazol-1-yl)methyl][1,1'-biphenyl]-2-carboxylic acid] |  | 33.1 |  | Inhibition (AII pressor response; 30 mg/kg i.d.): 98%

Second part, led by results:

Row | IC50 [1] [nM] | SMILES | Kb (rabbit aortic rings; [2]) [nM] | Kb (rabbit aortic rings; second of two values) [nM] | other results
8 | 5.4 | CCCCc1nc(CCCC)n(Cc2ccc(-c3ccccc3-c3nnn[nH]3)cc2)n1 [Example 3, 5-[4'-[(3,5-dibutyl-1H-1,2,4-triazol-1-yl)methyl][1,1'-biphenyl]2-yl]-1H-tetrazole] | 2 |  | Inhibition (AII pressor response; 30 mg/kg i.d.): 100%; Duration (AII pressor response; 30 mg/kg i.d.): ≥ 200 min
9 | 4.9 | CCCCc1nc(C(F)(F)CCC)nn1Cc1ccc(-c2ccccc2-c2nnn[nH]2)cc1 [Example 10, 5-[4'-[[5-butyl-3-(1,1-difluorobutyl)-1H-1,2,4-triazol-1-yl]methyl][1,1'-biphenyl]-2-yl]-1H-tetrazole] | 6.46 | 25.7 | Inhibition (AII pressor response; 30 mg/kg i.d.): 100%; Duration (AII pressor response; 30 mg/kg i.d.): 240 min
10 | 84 | CCCCc1nc(Cl)nn1Cc1ccc(-c2ccccc2-c2nnn[nH]2)cc1 [Example 7] | 9.33 |  | 
11 | 7.2 | CCCCc1nc(CCC)nn1Cc1ccc(-c2ccccc2-c2nnn[nH]2)cc1 [Example 14, 5-[4'-[(5-butyl-3-propyl-1H-1,2,4-triazol-1-yl)methyl]-[1,1'-biphenyl]-2-yl]-1H-tetrazole] | 1.45 | 1.95 | 
12 | 700 | CCCCc1nc(Cl)n(Cc2ccc(-c3ccccc3-c3nnn[nH]3)cc2)n1 [Example 9] | 40.7 |  | Inhibition (AII pressor response; 30 mg/kg i.d.): 100%; Duration (AII pressor response; 30 mg/kg i.d.): 230 min
13 | 6 | CCCc1nc(CCC)n(Cc2ccc(-c3ccccc3-c3nnn[nH]3)cc2)n1 [Example 12, 5-[4'-[(3,5-dipropyl-1H-1,2,4-triazol-1-yl)methyl][1,1'-biphenyl]-2-yl]-1H-tetrazole] | 2.19 | 2.57 | 
14 | 6.4 | CCCCc1nc(CCC(C)C)n(Cc2ccc(-c3ccccc3-c3nnn[nH]3)cc2)n1 [Example 16, 5-[4'-[(3-butyl-5-isopentyl-1H-1,2,4-triazol-1-yl)methyl]-[1,1'-biphenyl]-2-yl]-1H-tetrazole] | 1.12 | 0.575 | 
15 | 4 | CCCCc1nc(CCC(C)C)nn1Cc1ccc(-c2ccccc2-c2nnn[nH]2)cc1 [Example 17, 5-[4'-[(5-butyl-3-isopentyl-1H-1,2,4-triazol-1-yl]methyl)[1,1'-biphenyl]-2-yl]-1H-tetrazole] | 2.29 | 3.98 | 
16 | 160 | CCCCc1nc(C(F)(F)CCC)n(Cc2ccc(-c3ccccc3-c3nnn[nH]3)cc2)n1 [Example 11, 5-[4'-[[3-butyl-5-(1,1-difluorobutyl)-1H-1,2,4-triazol-1-yl]methyl][1,1'-biphenyl]-2-yl]-1H-tetrazole] | 355 | 170 | 
17 | 16 | CCCCc1nc(CCC)n(Cc2ccc(-c3ccccc3-c3nnn[nH]3)cc2)n1 [Example 15, 5-[4'-[(3-butyl-5-propyl-1H-1,2,4-triazol-1-yl)methyl]-[1,1'-biphenyl]-2-yl]-1H-tetrazole] | 4.9 | 5.01 | 
18 | 1700 | CCCCc1nc(Cl)n(Cc2ccc(-c3ccccc3C(=O)O)cc2)n1 [Example 8, 4'-[(3-butyl-5-chloro-1H-1,2,4-triazol-1-yl)methyl][1,1'-biphenyl]-2-carboxylic acid] |  |  | 
